# ChEMBL document CHEMBL1152698, “A novel class of allosteric modulators of AMPA/Kainate receptors” (Bioorg Med Chem Lett, 2009)
# How the values were obtained:
# Rattus norvegicus = organism: Rattus norvegicus; assay: Potentiation of AMPA receptor mediated KA-induced current in Sprague-Dawley rat primary cerebellar granule neurons at 200 uM
# [1] = Potentiation of AMPA receptor mediated KA-induced current in Sprague-Dawley rat primary cerebellar granule neurons
# [2] = Extracellular drug level in Sprague-Dawley rat hippocampus at 100 mg/kg, po after 4 hrs; format: ADME, organism-based; design: dose 100 mg/kg, route oral; details: hippocampus extracellular fluid, read-out: Drug uptake
# [3] = Extracellular drug level in Sprague-Dawley rat hippocampus at 100 mg/kg, po after 6 hrs; format: ADME, organism-based; design: dose 100 mg/kg, route oral; details: hippocampus extracellular fluid, read-out: Drug uptake
Activity (Rattus norvegicus),Compound,further results
-5%,COc1ccc(S(N)(=O)=O)c(N)c1,–
80%,CC1Nc2ccc(Cl)cc2S(=O)(=O)N1 (racemic),–
80%,CCCNc1ccc(Cl)cc1S(N)(=O)=O,EC50 [1]: 134 µM
32%,CC(C)Nc1ccc(Cl)cc1S(N)(=O)=O,–
35%,Nc1cc(Cl)c(Cl)cc1S(N)(=O)=O,–
8%,Nc1cc(Cl)ccc1S(N)(=O)=O,–

# More lines, now with the values behind:
Compound,Activity (Rattus norvegicus),further results
CCNS(=O)(=O)c1cc(Cl)ccc1N,12%,–
CNc1ccc(Cl)cc1S(N)(=O)=O,69%,–
CCCNS(=O)(=O)c1cc(Cl)ccc1N,4%,–
Cc1cccc(S(N)(=O)=O)c1N,7%,–
Nc1ccc([N+](=O)[O-])cc1S(N)(=O)=O,-8%,–
CNS(=O)(=O)c1cc(Cl)ccc1N,5%,–
Nc1cc(Cl)c(S(N)(=O)=O)cc1S(N)(=O)=O,-6%,–
Nc1ccccc1S(N)(=O)=O,-5%,–
Nc1ccc(Cl)cc1S(N)(=O)=O,23%,concentration at 4 h [2]: 12000 ng/mL; EC50 [1]: 284 µM; concentration at 6 h [3]: 8000 ng/mL
CCNc1ccc(Cl)cc1S(N)(=O)=O,91%,–
